System in the first series: not given
Assay: not given
As to conditions: background art statement; cited from earlier work.
Take `COc1cc([C@@H]2c3cc4c(cc3[C@@H](O[C@@H]3O[C@@H]5CO[C@@H](C)O[C@H]5[C@H](O)[C@H]3O)[C@H]3COC(=O)[C@H]23)OCO4)cc(OC)c1O` [etoposide]: the serious adverse reactions result was “may cause serious adverse reactions including leukopenia, thrombopenia, alopecia, nausea and vomiting”.

In the case of `COc1cc([C@@H]2c3cc4c(cc3[C@@H](O[C@@H]3O[C@@H]5CO[C@@H](c6cccs6)O[C@H]5[C@H](O)[C@H]3O)[C@H]3COC(=O)[C@H]23)OCO4)cc(OC)c1O` [teniposide], the serious adverse reactions result was “may cause serious adverse reactions including leukopenia, thrombopenia, alopecia, nausea and vomiting”.

The test system of a further series is P388 mouse leukemia cell line. Nature of the series: Cytocidal effect on P388 mouse leukemia cells (crystal violet cytometry). Format: cell-based. As to conditions: 72 h; P388 mouse leukemia cells, 1×10^3 cells/well, 3 days incubation with compound; read-out: ED50 (concentration causing a 50% decrease in cell count as compared with the control). As for the experimental part:
A 96-well plate was inoculated with 1×10^3 cells/well of P388 mouse leukemia cell line and incubated for 24 hours. The test compound was dissolved in dimethylformamide and the solution was diluted with medium to various concentrations and added to respective wells. The plate was further incubated for 3 days, after which it was fixed with glutaraldehyde and stained with crystal violet for cytometry. The cytocidal effect of each compound was expressed as the concentration causing a 50% decrease in cell count (ED50) as compared with the control.
Take `COc1cc(C2c3cc4c(cc3C(CCN(C)CCN(C)C)C3COC(=O)C23)OCO4)cc(OC)c1O` (stereo not drawn) [Compound 35]: the IC50 was found to be 0.001 µM.

For `CCN(CC)CCN(C)CCC1c2cc3c(cc2C(c2cc(OC)c(O)c(OC)c2)C2C(=O)OCC12)OCO3` (stereo not drawn) [Compound 47], the IC50 was determined as 0.0063 µM.

The series is the same for the next values; noted with them: Mus musculus, P388, 72 h, read-out: ED50 (concentration causing a 50% decrease in cell count as compared with the control).
As for `COc1cc(C2c3cc4c(cc3C(CC=O)C3COC(=O)C23)OCO4)cc(OC)c1OC(=O)OCc1ccccc1` (stereo not drawn) [Compound 3, 4-desoxy-4'-demethyl-4'-O-benzyloxycarbonyl-4-formylmethyl-4-epipodophyllotoxin], the IC50 was determined as 0.45 µM.

As to `COc1cc(C2c3cc4c(cc3C(CC=O)C3COC(=O)C23)OCO4)cc(OC)c1O` (stereo not drawn) [Compound 5, 4-desoxy-4'-demethyl-4-formylmethyl-4-epipodophyllotoxin], the IC50 came out at 0.12 µM.

For `COc1cc(C2c3cc4c(cc3C(CCCN(C)C)C3COC(=O)C23)OCO4)cc(OC)c1O` (stereo not drawn) [Compound 28, 4-desoxy-4'-demethyl-4-(3-N,N-dimethylamino-1-propyl)-4-epipodophyllotoxin], the IC50 amounted to 0.012 µM.

Consider `COc1cc(C2c3cc4c(cc3C(CCN(C)N(C)C)C3COC(=O)C23)OCO4)cc(OC)c1O` (stereo not drawn) [Compound 33], for which the IC50 was 0.02 µM.

Turning to `COc1cc(C2c3cc4c(cc3C(CCN3CCN(C)CC3)C3COC(=O)C23)OCO4)cc(OC)c1O` (stereo not drawn) [Compound 34], the IC50 worked out at 0.003 µM.

On to `CCCCCCN(C)CCC1c2cc3c(cc2C(c2cc(OC)c(O)c(OC)c2)C2C(=O)OCC12)OCO3` (stereo not drawn) [Compound 38], for which the IC50 is 0.019 µM.

On to `COc1cc(C2c3cc4c(cc3C(CCN(C)CCN3CCCCC3)C3COC(=O)C23)OCO4)cc(OC)c1O` (stereo not drawn) [Compound 43], for which the IC50 worked out at 0.0041 µM.

Consider `COc1cc(C2c3cc4c(cc3C(CCN3CCCCC3)C3COC(=O)C23)OCO4)cc(OC)c1O` (stereo not drawn) [Compound 44], for which the IC50 was found to be 0.012 µM.

With `COc1cc(C2c3cc4c(cc3C(CCN3CCC(N5CCCCC5)CC3)C3COC(=O)C23)OCO4)cc(OC)c1O` (stereo not drawn) [Compound 45], the IC50 was 0.0033 µM.

For `COc1cc(C2c3cc4c(cc3C(CCNCCN(C)C)C3COC(=O)C23)OCO4)cc(OC)c1O` (stereo not drawn) [Compound 52], the IC50 amounted to 0.04 µM.

Regarding `COc1cc(C2c3cc4c(cc3C(CCN(C)N3CCN(C)CC3)C3COC(=O)C23)OCO4)cc(OC)c1O` (stereo not drawn) [Compound 53], the IC50 amounted to 0.0043 µM.

In a further series the test system is L1210 mouse leukemia cell line. As to the kind of experiment: Life-prolonging effect in CDF1 mice intraperitoneally transplanted with L1210 leukemia. Type of series: in vivo. As to conditions: 2.5 mg/kg/day i.p., 5 days; L1210, male CDF1 mice; vs vehicle group. Here is the method:
L1210 mouse leukemia cell line, 1×10^5 cells/mouse, was intraperitoneally transplanted into 7-weeks-old male CDF1 mice (6 per group). The test compound, in the varying amounts shown below in Table 4, was dissolved in physiological saline containing 3.5% of dimethyl sulfoxide and 6.5% of Tween 80 and the solution was intraperitoneally administered for 5 days following the transplantation of cells for a total of 5 times. The percent life-prolonging effect of the compound was determined by comparison with a group given physiological saline containing 3.5% of dimethyl sulfoxide and 6.5% of Tween 80 only.
Take `COc1cc(C2c3cc4c(cc3C(CCN3CCC(N5CCCCC5)CC3)C3COC(=O)C23)OCO4)cc(OC)c1O` (stereo not drawn) [Compound 45]: the Life-prolonging effect was 231%.

Staying with this series, now noted: 5 mg/kg/day i.p., 5 days; L1210, male CDF1 mice; vs vehicle group.
`COc1cc(C2c3cc4c(cc3C(CCN(C)CCN3CCCCC3)C3COC(=O)C23)OCO4)cc(OC)c1O` (stereo not drawn) [Compound 43] returned a Life-prolonging effect of 257%.

Still in this series, the particulars now being: 10 mg/kg/day i.p., 5 days; L1210, male CDF1 mice; vs vehicle group.
`COc1cc(C2c3cc4c(cc3C(CCN3CCOCC3)C3COC(=O)C23)OCO4)cc(OC)c1O` (stereo not drawn) [Compound 36] displayed a Life-prolonging effect of 81%.

These data come from patent publication US5536847A, “4-desoxy-4-epipodophyllotoxin derivative or pharmaceutically acceptable salt thereof” (Taiho Pharmaceutical Co. Ltd., priority 1991, dated 1996).
